Assay results as given in US11220524B2, “Selective inhibitors of protein arginine methyltransferase 5 (PRMT5)” (PRELUDE THERAPEUTICS, INCORPORATED, priority 2017, dated 2022).
In brackets after ≈: the same amount, converted by molar mass. Where two headings read alike, the source gives them in different places.

Key:
[1] = tested on: sDMA in Granta-519 tumors; test: In vivo pharmacodynamic effect: sDMA levels in tumor samples of Granta-519 mouse xenograft model
Description: (§1) In Vivo Pharmacodynamic Effect of Example 36 in Granta-519 Mouse Xenograft Model.
(§2) Granta-519 cells was maintained in DMEM medium supplemented with 10% fetal bovine serum and 2 mM L-Glutamine at 37° C. in an atmosphere of 5% C02 in air. Cells in exponential growth phase were harvested and 1×10^7 cells in 0.1 mL of PBS with Matrigel (1:1) were injected subcutaneously at the right lower flank region of each mouse for tumor development. The treatments were started when the mean tumor size reaches approximately 300-400 mm^3. […] Example 36 or vehicle (0.5% methylcellulose+0.1% Tween 80) were administered orally (BID for Example 36, QD for vehicle) at a dose of 25 mg/kg for 6 days. Body weights and tumor size were measured thrice weekly after randomization. Animals were euthanized 4 hours after last dosing on day 6, and blood and tumor samples were collected for analysis.
To measure sDMA levels in tumor samples, tumors from each mouse were weighted and homogenized in RIPA buffer supplemented with protease inhibitor (cOmplete™, EDTA-free Protease Inhibitor Cocktail, Roche). […] Total protein concentrations of lysate were determined by BCA assay (ThermoFisher Scientific, Catalog #: 23225). Equal amount of total proteins from each tumor were separated on SDS-PAGE gel, and sDMA levels were determined by WB as described previously. […]

[2] = tested on: Symmetric Di-Methyl Arginine (sDMA) in Granta-519 cells; test: Western blot for symmetric di-methyl arginine (sDMA) marks in Granta cells, 3 days treatment; type: cell-based; conditions: Homo sapiens, 3 days
[3] = tested on: Granta-519 mouse xenograft; test: Tumor growth inhibition and body weight in Granta-519 mouse xenograft model; type: in vivo; conditions: for tumor growth inhibition: N=5
Description: as §1, §2
Example 92 or vehicle (0.5% Na CMC+0.5% Tween80, suspension) were administered orally (QD for Example 92, QD for vehicle) at a dose of 50 mg/kg for 14 days. Body weights and tumor size were measured every 3 to 4 days after randomization. Animals were euthanized 4 hours after last dosing, and blood and tumor samples were collected for analysis.

PRMT5/MEP50 complex = PRMT5/MEP50 complex (Homo sapiens (Human), UniProt O14744); test: Biochemical assay: PRMT5/MEP50 methylation of histone H2A with 3H-SAM, filter plate scintillation
Outline: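 5 nM PRMT5/MEP50 preincubated with compound 15–20 min at room temperature, with 5 μM histone H2A as substrate; reaction started with 1 μM 3H-SAM and run 60 min at 30 °C. TCA-stopped, filter-captured methylation counted by scintillation; IC50 from 4-parameter Hill fit.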

[4] = In vivo pharmacokinetic study in rat (i.v. and p.o.); conditions: for clearance / half-life / Vd / bioavailability: blood; for clearance / half-life / Vd: iv; for half-life: read-out: T1/2 (printed T2) (converted); for Vd: read-out: Vss; for bioavailability: po
Description: In Vivo Pharmacokinetic Properties of Example 36.
In a rat (SD, male, non-fasted) non-crossover cassette PK study, Example 36 was dosed at 0.25 mg/kg via i.v. administration (N=3) and 2 mg/kg via oral gauge (p.o.) (N=3) with other 3 compounds.
In Vivo Pharmacokinetic Properties of Example 92.
In a rat (SD, male, non-fasted) non-crossover PK study, Example 92 was dosed at 1 mg/kg (DMA: 20% HPBCD=5:95, solution) via i.v. administration (N=2) and 1 mg/kg (0.5% Na CMC+0.5% Tween80, solution) via oral gauge (p.o.) (N=2).

Granta-519 cells = test: Cell proliferation assay on Granta-519 cells (CCK-8, day 10); type: cell-based; conditions: Homo sapiens
Description: Cell Proliferation Assay to Determine IC50 on Granta-519 Cells
Granta-519 cells were maintained in PRMI 1640 (Corning Cellgro, Catalog #: 10-040-CV) medium supplemented with 10% v/v FBS (GE Healthcare, Catalog #: SH30910.03). Compounds were dissolved in DMSO to make 10 mM stocks and stored at −20° C. Nine-point, 3-fold serial dilutions were made with DMSO with top concentration at 1 mM (working stocks).
On day of experiment, compound working stocks were further diluted at 1:50 with fresh medium in 96 well plate, and 10 μL of diluted drugs were added to a new 96 well plate for proliferation assay. Cells growing at exponential phase were spun down at 1500 rpm for 4 min and resuspend in fresh medium to reach a density of 0.5×10^6 cells/ml. 200 ul of cells were added to 96 well plate containing diluted drugs and incubated for 3 days. DMSO was used a vehicle control.
One day 3, 10 μL of Cell Counting Kit-8 (CCK-8, Jojindo, CK04-13) solution was added to a new 96 well plate. Cells incubated with drugs for 3 days were resuspended by pipetting up and down, and 100 μL of cells were transferred to 96 well plate containing CCK-8 reagent to measure viable cells. Plates were incubated in C02 incubator for 2 hours and OD450 values were measured with a microplate reader (iMark microplate reader, Bio-Rad).
For re-plating, compound working stocks were diluted at 1:50 with fresh medium and 10 μL of diluted drugs were added to anew 96 well plate. Cells from Day 3plate (50 ul) were added to 96 well plate containing fresh drug and additional 150 of fresh medium was added to reach 200 ul volume. Plate was returned to CO2incubator and incubated for 3more days. Viable cells measurement and re-plating were repeated on day 6, and the final viable cells measurement was taken on day 10.
Percentage of viable cells, relative to DMSO vehicle control, were calculated and plotted in Graphpad Prism ([Inhibitor] vs. normalized response-Variable slope) to determine proliferation IC50 values on day 10.

physchem = conditions: 25 °C, fassif, thermodynamic from solid
Description: Compounds were first dispersed in freshly prepared FaSSIF (http://biorelevant.com/site_media/upload/documents/How_to_make_FaSSIF_FeSSIF_and_FaSSGF.pdf) buffer in 1 mg/mL respectively, and the standard samples were prepared by preparing 1 mg/mL of test compounds in DMSO. The compounds were then sufficient mixed by vortex mixer for 30 sec, and agitated at 25° C. using 300 rpm form 4 hour in thermo mixer. After incubation, the prepared samples were centrifuged at 10000 rpm for 10 min to remove the undissolved solid, the resulting supernatants were applied to HPLC. The actual concentrations of the compounds were evaluated by measuring the peak area, and the solubility (S) of compounds was calculated according to following equation: S=Csmp=Cstd*(Asmp/Astd)*(Vstd/Vsmp) Where C is the sample concentration in μg/mL, A is the peak area, and V is the injection volume.

[5] = histone H2A 5 μM, SAM 1 μM, enzyme 5 nM, read-out: PRMT5/MEP50 IC50
[6] = rat SD male non-fasted, i.v. 1 mg/kg, N=2
[7] = rat SD male non-fasted, p.o. 1 mg/kg, N=2
[8] = rat SD male non-fasted, cassette, i.v. 0.25 mg/kg, N=3

PRMT5/MEP50 complex, sequence (O14744 whole entry): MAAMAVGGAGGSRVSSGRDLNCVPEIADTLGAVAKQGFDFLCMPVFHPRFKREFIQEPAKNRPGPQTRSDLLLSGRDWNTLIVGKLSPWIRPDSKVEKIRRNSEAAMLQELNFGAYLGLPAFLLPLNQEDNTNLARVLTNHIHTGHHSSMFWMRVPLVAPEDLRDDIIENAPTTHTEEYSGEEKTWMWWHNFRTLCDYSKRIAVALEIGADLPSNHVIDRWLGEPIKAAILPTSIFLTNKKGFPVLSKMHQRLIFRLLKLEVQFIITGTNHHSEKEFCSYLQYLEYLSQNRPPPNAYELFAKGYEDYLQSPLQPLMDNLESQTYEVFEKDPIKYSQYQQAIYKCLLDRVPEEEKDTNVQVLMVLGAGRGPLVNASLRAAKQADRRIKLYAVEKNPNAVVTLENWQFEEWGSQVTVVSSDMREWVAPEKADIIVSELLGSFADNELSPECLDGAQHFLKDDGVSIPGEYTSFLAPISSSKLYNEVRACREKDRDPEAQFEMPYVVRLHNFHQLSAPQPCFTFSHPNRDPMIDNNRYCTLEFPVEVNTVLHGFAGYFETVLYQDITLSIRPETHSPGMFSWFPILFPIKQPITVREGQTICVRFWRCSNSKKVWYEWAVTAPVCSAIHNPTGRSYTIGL
PRMT5/MEP50 complex, sequence (Q9BQA1 whole entry partner): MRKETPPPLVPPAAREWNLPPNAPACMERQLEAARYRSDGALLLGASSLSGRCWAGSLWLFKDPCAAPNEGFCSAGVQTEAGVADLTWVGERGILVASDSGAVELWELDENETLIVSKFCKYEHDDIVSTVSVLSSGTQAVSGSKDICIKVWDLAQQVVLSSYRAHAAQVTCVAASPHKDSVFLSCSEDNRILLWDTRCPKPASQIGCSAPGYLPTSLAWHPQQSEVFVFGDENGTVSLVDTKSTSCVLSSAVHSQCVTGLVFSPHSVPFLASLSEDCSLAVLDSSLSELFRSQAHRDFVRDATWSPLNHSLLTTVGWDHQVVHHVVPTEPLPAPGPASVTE

Compound: C[C@@](O)(c1ccc(Cl)c(Cl)c1)[C@H]1O[C@@H](n2cnc3c(N)ncnc32)[C@H](O)[C@@H]1O [Example 1-C, (2R,3R,4S,5S)-2-(6-amino-9H-purin-9-yl)-5-((R)-1-(3,4-dichlorophenyl)-1-hydroxyethyl)tetrahydrofuran-3,4-diol]
- sDMA in tumor samples ([1]; 30 mg/kg, separate experiment): no detectable amount of sDMA
- IC50 ([2]; Granta-519, 72 h, Granta cell line): 8.2 nM
- body weight gain ([3]; 30 mg/kg, separate experiment): 6%
- tumor growth inhibition ([3]; 30 mg/kg, separate experiment): 61%
- metabolite detection in blood and tumor samples ([3]; mouse xenograft, after Example 92 at 50 mg/kg QD for 14 days): detected in all blood and tumor samples
- IC50 (PRMT5/MEP50 complex; biochemical potency, read-out: PRTMT5/MEP50 IC50): 3.6 nM
- metabolite detection in blood samples ([4]; rat, after dosing of Example 92 at 1 mg/kg): detected in blood samples
- AUC0-inf of metabolite ([4]; rat, metabolite after dosing of Example 92 at 1 mg/kg): 284 ng·kg·h/mL/mg
- IC50 (Granta-519 cells; Granta-519, 240 h, Granta cell line, read-out: Prolif. IC50): 44 nM

Compound: CO/N=c1\[nH]cnc2c1ncn2[C@@H]1O[C@H]([C@](C)(O)c2ccc(Cl)c(Cl)c2)[C@@H](O)[C@H]1O [Example 92, (2S,3S,4R,5R)-2-[(1R)-1-(3,4-dichlorophenyl)-1-hydroxy-ethyl]-5-[(6Z)-6-methoxyimino-1H-purin-9-yl]tetrahydrofuran-3,4-diol]
- inhibition of sDMA in tumor samples ([1]; 50 mg/kg orally QD for 14 days): > 90%
- body weight loss ([3]; 50 mg/kg orally QD for 14 days): 1%
- tumor growth inhibition ([3]; 50 mg/kg orally QD for 14 days): 74%
- IC50 (PRMT5/MEP50 complex; [5]): 1970 nM
- clearance [4, 6]: 11.3 mL/min/kg
- half-life [4, 6]: 1.84 h
- Vd [4, 6]: 1.13 L/kg
- bioavailability [4, 7]: > 100%
- dose normalized AUC0-inf [4, 7]: 2184 ng·kg·h/mL/mg

Compound: CO/N=c1/nc[nH]c2c1ccn2[C@@H]1O[C@H]([C@H](O)c2ccc(Cl)cc2)[C@@H](O)[C@H]1O [compound 36, (2R,3S,4R,5R)-2-[(R)-(4-chlorophenyl)-hydroxy-methyl]-5-(-4-methoxyimino-1H-pyrrolo[2,3-d]pyrimidin-7-yl]tetrahydrofuran-3,4-diol]
- IC50 ([2]; 72 h, Granta-519 cell line): 102000 nM
- IC50 (PRMT5/MEP50 complex; [5]): 17300 nM
- clearance [4, 8]: 12.3 mL/min/kg
- half-life [4, 8]: 1.2 h
- Vd [4, 8]: 1.1 L/kg
- bioavailability ([4]; rat SD male non-fasted, cassette, p.o. 2 mg/kg, N=3): > 120%
- solubility at 4 h (physchem): 912 µg/mL (≈ 2240 µM)
- IC50 (Granta-519 cells; 240 h, Granta-519 cell line, read-out: Proliferation IC50): 144 nM
